According to the supplement of paper PMC10331698:
± gives the standard deviation of the averaged measurements.

Assays:
Assay in all cases: level (log10 ratio to DMSO vehicle control); higher = higher biomarker level / cell amount than vehicle control
Settings in all cases: in DMSO
[1] = compound: NC(=O)C(F)(F)C(F)(F)C(F)(F)C(F)(F)C(F)(F)C(F)(F)C(F)(F)F [Perfluorooctanamide]
Experimental: (§1)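 BioMAP Diversity Plus panel of 12 human primary cell co-culture systems (3C, 4H, LPS, SAg, BT, BF4T, BE3C, CASM3C, HDF3CGF, KF3CT, MyoF, Mphg). Compounds were added 1 h before stimulation and left for 24 h (MyoF 48 h; BT 72 h for soluble read-outs or 6 d for IgG). Biomarkers were read by ELISA, cytotoxicity by SRB, PBMC viability and proliferation by Alamar Blue. Each well value was divided by the mean of 8 DMSO control wells on the same plate and log10 transformed; duplicate blinded samples were tested at 4 concentrations.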

[2] = compound: CNS(=O)(=O)C(F)(F)C(F)(F)C(F)(F)C(F)(F)C(F)(F)C(F)(F)C(F)(F)C(F)(F)F [N-Methylperfluorooctanesulfonamide]
Experimental: as §1

[3] = compound: OCC(F)(F)C(F)(F)C(F)(F)F [1H,1H-Heptafluorobutanol]
Experimental: as §1

[4] = compound: FC(F)(F)C(F)(F)C(F)(F)C(F)(F)C(F)(F)C(F)(F)C(F)(F)CCI [1-Iodo-1H,1H,2H,2H-perfluorononane]
Experimental: as §1

[5] = compound: O=P(O)(O)CCC(F)(F)C(F)(F)C(F)(F)C(F)(F)C(F)(F)C(F)(F)C(F)(F)C(F)(F)F [((Perfluorooctyl)ethyl)phosphonic acid]
Experimental: as §1

[6] = compound: O=C(O)C(F)(F)C(F)(F)C(F)(F)C(=O)O [Hexafluoroglutaric acid]
Experimental: as §1

[7] = compound: C=CC(=O)OCCC(F)(F)C(F)(F)C(F)(F)C(F)(F)F [2-(Perfluorobutyl)ethyl acrylate]
Experimental: as §1

Test System	level (log10) ([1]; 6700 nM)	level (log10) ([1]; 20000 nM)	level (log10) ([1]; 60000 nM)	level (log10) ([2]; 6700 nM)	level (log10) ([2]; 20000 nM)	level (log10) ([2]; 60000 nM)	level (log10) ([3]; 6700 nM)	level (log10) ([3]; 20000 nM)	level (log10) ([3]; 60000 nM)	level (log10) ([4]; 6700 nM)	level (log10) ([4]; 20000 nM)	level (log10) ([5]; 6700 nM)	level (log10) ([5]; 20000 nM)	level (log10) ([5]; 60000 nM)	level (log10) ([6]; 6700 nM)	level (log10) ([6]; 20000 nM)	level (log10) ([6]; 60000 nM)	level (log10) ([7]; 6700 nM)	level (log10) ([7]; 20000 nM)	level (log10) ([7]; 60000 nM)
BT:sTNF-alpha	-0.0175 ± 0.011	0.0215 ± 0.056	-0.129 ± 0.095	-0.017 ± 0.055	0.0015 ± 0.022	-0.0905 ± 0.29	0.078 ± 0.055	0.0915 ± 0.057	0.011 ± 0.083	0.018 ± 0.054	0.063 ± 0.12	-0.019 ± 0.013	-0.0175 ± 0.15	-0.211 ± 0.39	0.026 ± 0.13	0.0415 ± 0.039	0.116 ± 0.039	-0.095 ± 0.1	-0.192 ± 0.0085	-0.767 ± 0.3
LPS:CD69	-0.0115 ± 0.086	0.0295 ± 0.036	0.0385 ± 0.029	-0.068 ± 0.016	-0.0725 ± 0.0092	-0.0725 ± 0.0035	-0.016 ± 0.021	-0.0245 ± 0.021	-0.0075 ± 0.0035	-0.0145 ± 0.026	-0.0065 ± 0.063	-0.04 ± 0.0042	-0.032 ± 0.018	-0.0305 ± 0.023	-0.003 ± 0.011	-0.014 ± 0.0099	0.0075 ± 0.0021	-0.0225 ± 0.015	-0.017 ± 0.041	-0.049 ± 0.041
4H:VEGFR2	-0.025 ± 0.0099	-0.0405 ± 0.037	-0.021 ± 0.025	-0.0425 ± 0.032	-0.096 ± 0.0085	-0.0995 ± 0.00071	0.0085 ± 0.026	-0.0015 ± 0.0035	0.003 ± 0.035	-0.0015 ± 0.026	0.0225 ± 0.06	-0.016 ± 0.033	-0.024 ± 0.035	0.007 ± 0.0057	0.0005 ± 0.016	-0.04 ± 0.0099	-0.0095 ± 0.0078	0.01	-0.006 ± 0.017	-0.0035 ± 0.037
4H:SRB	-0.0005 ± 0.005	-0.008 ± 0.0057	0.0085 ± 0.028	-0.0045 ± 0.0092	-0.041 ± 0.0014	-0.0635 ± 0.054	-0.005 ± 0.0071	-0.0005 ± 0.013	0.0065 ± 0.005	0.0165 ± 0.0092	0.024 ± 0.024	-0.0005 ± 0.0064	0.0025 ± 0.022	-0.055 ± 0.052	-0.0005 ± 0.0092	0.003 ± 0.016	0.011 ± 0.034	-0.003 ± 0.0085	0.0105 ± 0.021	-0.0205 ± 0.016
